In PubChem BioAssay AID1918932 (Molecular Pharmacology Branch, DTP, NCI, 2023):
pIC50: −log10 of the molar value. Values joined by “and” are separate entries in the source; they are usually repeats but may differ in a detail not shown here. Identical values can stand only once.

Tested on: 171881-019-R-J1-PDC complex spheroid viability
Assay: Anticancer human tumor 171881-019-R-J1-PDC patient-derived invasive breast carcinoma cell line growth inhibition
Conditions: for viability, T/C: stronger effect = lower value
In short: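 Complex spheroids of tumor cells with HUVEC and human MSCs, exposed to iadademstat combined with other agents. Each agent tested in half-log steps from near clinical Cmax (else 10 microM top), DMSO ≤0.25%.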

[1] = curve of first compound, second compound 0.1 µM
[2] = curve of first compound, second compound 0.316 µM
[3] = curve of first compound, second compound 1 µM
[4] = curve of first compound, second compound 3.16 µM
[5] = curve of first compound, second compound 10 µM
[6] = second compound 0.1 µM, first compound 0.0316 µM
[7] = second compound 0.1 µM, first compound 0.1 µM
[8] = second compound 0.1 µM, first compound 0.316 µM
[9] = second compound 0.1 µM, first compound 1 µM
[10] = second compound 0.1 µM, first compound 3.16 µM
[11] = second compound 0.1 µM, first compound 10 µM
[12] = second compound 0.316 µM, first compound 0.0316 µM
[13] = second compound 0.316 µM, first compound 0.1 µM
[14] = second compound 0.316 µM, first compound 0.316 µM
[15] = second compound 0.316 µM, first compound 1 µM
[16] = second compound 0.316 µM, first compound 3.16 µM
[17] = second compound 0.316 µM, first compound 10 µM
[18] = second compound 1 µM, first compound 0.0316 µM
[19] = second compound 1 µM, first compound 0.1 µM
[20] = second compound 1 µM, first compound 0.316 µM
[21] = second compound 1 µM, first compound 1 µM
[22] = second compound 1 µM, first compound 3.16 µM
[23] = second compound 1 µM, first compound 10 µM
[24] = second compound 3.16 µM, first compound 0.0316 µM
[25] = second compound 3.16 µM, first compound 0.1 µM
[26] = second compound 3.16 µM, first compound 0.316 µM
[27] = second compound 3.16 µM, first compound 1 µM
[28] = second compound 3.16 µM, first compound 3.16 µM
[29] = second compound 3.16 µM, first compound 10 µM
[30] = second compound 10 µM, first compound 0.0316 µM
[31] = second compound 10 µM, first compound 0.1 µM
[32] = second compound 10 µM, first compound 0.316 µM
[33] = second compound 10 µM, first compound 1 µM
[34] = second compound 10 µM, first compound 3.16 µM
[35] = second compound 10 µM, first compound 10 µM

## COc1ccc([C@@H](O)c2cc(-c3ncnc4cc(N5CCOCC5)ccc34)c(F)cc2Cl)nn1 + NC1CC1c1ccc(-c2cccc(O)c2)cc1
[1]
  pIC50: 6.20
[2]
  pIC50: 6.17
[3]
  pIC50: 6.12
[4]
  pIC50: 6.09
[5]
  pIC50: 6.22
[6]
  viability, T/C: 100%
[7]
  viability, T/C: 99.9%
[8]
  viability, T/C: 78.9%
[9]
  viability, T/C: 30.5%
[10]
  viability, T/C: 7.18%
[11]
  viability, T/C: 11%
[12]
  viability, T/C: 103%
[13]
  viability, T/C: 100%
[14]
  viability, T/C: 81.2%
[15]
  viability, T/C: 34.4%
[16]
  viability, T/C: 8.07%
[17]
  viability, T/C: 11%
[18]
  viability, T/C: 108%
[19]
  viability, T/C: 107%
[20]
  viability, T/C: 85.9%
[21]
  viability, T/C: 39.2%
[22]
  viability, T/C: 8.76%
[23]
  viability, T/C: 9.94%
[24]
  viability, T/C: 104%
[25]
  viability, T/C: 106%
[26]
  viability, T/C: 92.1%
[27]
  viability, T/C: 40.8%
[28]
  viability, T/C: 7.82%
[29]
  viability, T/C: 10.7%
[30]
  viability, T/C: 84.8%
[31]
  viability, T/C: 88.6%
[32]
  viability, T/C: 75.2%
[33]
  viability, T/C: 30.6%
[34]
  viability, T/C: 8.18%
[35]
  viability, T/C: 9.78%

## CC1(C)CCC(CN2CCN(c3ccc(C(=O)NS(=O)(=O)c4ccc(NCC5CCOCC5)c([N+](=O)[O-])c4)c(Oc4cnc5[nH]ccc5c4)c3)CC2)=C(c2ccc(Cl)cc2)C1 + NC1CCC(NC2CC2c2ccccc2)CC1
[1]
  pIC50: 5.66
[2]
  pIC50: 5.64
[3]
  pIC50: 5.68
[4]
  pIC50: 5.76
[5]
  pIC50: 5.70
[6]
  viability, T/C: 71.9%
[7]
  viability, T/C: 92.7%
[8]
  viability, T/C: 68.4%
[9]
  viability, T/C: 67.2%
[10]
  viability, T/C: 42.7%
[11]
  viability, T/C: 2.57%
[12]
  viability, T/C: 79.3%
[13]
  viability, T/C: 83.8%
[14]
  viability, T/C: 68.4%
[15]
  viability, T/C: 66.9%
[16]
  viability, T/C: 44.4%
[17]
  viability, T/C: 2.71%
[18]
  viability, T/C: 88.7%
[19]
  viability, T/C: 89.3%
[20]
  viability, T/C: 73.8%
[21]
  viability, T/C: 74.3%
[22]
  viability, T/C: 37.9%
[23]
  viability, T/C: 7.6%
[24]
  viability, T/C: 79.6%
[25]
  viability, T/C: 74.9%
[26]
  viability, T/C: 78.7%
[27]
  viability, T/C: 61.4%
[28]
  viability, T/C: 35.7%
[29]
  viability, T/C: 3.1%
[30]
  viability, T/C: 91.3%
[31]
  viability, T/C: 95.5%
[32]
  viability, T/C: 76%
[33]
  viability, T/C: 67.5%
[34]
  viability, T/C: 39.5%
[35]
  viability, T/C: 2.78%

## CC(C)CC(NC(=O)CNC(=O)c1cc(Cl)ccc1Cl)B1OC(=O)CC(CC(=O)O)(C(=O)O)O1 (configuration not stated) + NC1CC1c1ccc(-c2cccc(O)c2)cc1
[1]
  pIC50: 9.05
[2]
  pIC50: 8.97
[3]
  pIC50: 9.14
[4]
  pIC50: > 9.50
[5]
  pIC50: > 9.50
Second compound 0.1 µM, first compound 0.000316 µM
  viability, T/C: 95%
Second compound 0.1 µM, first compound 0.001 µM
  viability, T/C: 35.5%
Second compound 0.1 µM, first compound 0.00316 µM
  viability, T/C: 38.4%
Second compound 0.1 µM, first compound 0.01 µM
  viability, T/C: 23%
[6]
  viability, T/C: 5.32%
[7]
  viability, T/C: 15.9%
Second compound 0.316 µM, first compound 0.000316 µM
  viability, T/C: 91.9%
Second compound 0.316 µM, first compound 0.001 µM
  viability, T/C: 49.9%
Second compound 0.316 µM, first compound 0.00316 µM
  viability, T/C: 28.8%
Second compound 0.316 µM, first compound 0.01 µM
  viability, T/C: 24.4%
[12]
  viability, T/C: 13.9%
[13]
  viability, T/C: 11.5%
Second compound 1 µM, first compound 0.000316 µM
  viability, T/C: 76.5%
Second compound 1 µM, first compound 0.001 µM
  viability, T/C: 39.3%
Second compound 1 µM, first compound 0.00316 µM
  viability, T/C: 16.2%
Second compound 1 µM, first compound 0.01 µM
  viability, T/C: 8.02%
[18]
  viability, T/C: 11.6%
[19]
  viability, T/C: 5.3%
Second compound 3.16 µM, first compound 0.000316 µM
  viability, T/C: 43.9%
Second compound 3.16 µM, first compound 0.001 µM
  viability, T/C: 42.6%
Second compound 3.16 µM, first compound 0.00316 µM
  viability, T/C: 6.48%
Second compound 3.16 µM, first compound 0.01 µM
  viability, T/C: 6.09%
[24]
  viability, T/C: 12.3%
[25]
  viability, T/C: 12.9%
Second compound 10 µM, first compound 0.000316 µM
  viability, T/C: 19.6%
Second compound 10 µM, first compound 0.001 µM
  viability, T/C: 24.7%
Second compound 10 µM, first compound 0.00316 µM
  viability, T/C: 1.13%
Second compound 10 µM, first compound 0.01 µM
  viability, T/C: 4.15%
[30]
  viability, T/C: 4.16%
[31]
  viability, T/C: 4.12%

## CC1(C)CCC(CN2CCN(c3ccc(C(=O)NS(=O)(=O)c4ccc(NCC5CCOCC5)c([N+](=O)[O-])c4)c(Oc4cnc5[nH]ccc5c4)c3)CC2)=C(c2ccc(Cl)cc2)C1
Compound 0.0316 µM
  viability, T/C: 93.7% and 93.8%
Compound 0.1 µM
  viability, T/C: 87% and 96.2%
Compound 0.316 µM
  viability, T/C: 93% and 86.7%
Compound 1 µM
  viability, T/C: 77% and 58.6%
Compound 3.16 µM
  viability, T/C: 37.4% and 21.2%
Compound 10 µM
  viability, T/C: 3.33% and 4.05%
Curve of compound
  pIC50: 5.66 and 5.88

## O=C(c1cc(Cc2n[nH]c(=O)c3ccccc23)ccc1F)N1CCN(C(=O)C2CC2)CC1 + NC1CC1c1ccc(-c2cccc(O)c2)cc1
[1]
  pIC50: 5.43
[2]
  pIC50: 5.39
[3]
  pIC50: 5.37
[4]
  pIC50: 5.36
[5]
  pIC50: 5.51
[6]
  viability, T/C: 90.8%
[7]
  viability, T/C: 106%
[8]
  viability, T/C: 98.7%
[9]
  viability, T/C: 88.5%
[10]
  viability, T/C: 54.5%
[11]
  viability, T/C: 22.7%
[12]
  viability, T/C: 101%
[13]
  viability, T/C: 104%
[14]
  viability, T/C: 101%
[15]
  viability, T/C: 88%
[16]
  viability, T/C: 57.8%
[17]
  viability, T/C: 23.7%
[18]
  viability, T/C: 106%
[19]
  viability, T/C: 105%
[20]
  viability, T/C: 102%
[21]
  viability, T/C: 89.5%
[22]
  viability, T/C: 58.9%
[23]
  viability, T/C: 24%
[24]
  viability, T/C: 102%
[25]
  viability, T/C: 105%
[26]
  viability, T/C: 101%
[27]
  viability, T/C: 87%
[28]
  viability, T/C: 61%
[29]
  viability, T/C: 23.7%
[30]
  viability, T/C: 85.7%
[31]
  viability, T/C: 84.2%
[32]
  viability, T/C: 83.4%
[33]
  viability, T/C: 74%
[34]
  viability, T/C: 49.6%
[35]
  viability, T/C: 18.9%
